Patent publication US20180296531A1, “STIMULATION OF 11B-HSD2 EXPRESSION TO IMPROVE HORMONAL THERAPY OF STEROID-DEPENDENT DISEASE” (THE CLEVELAND CLINIC FOUNDATION, priority 2015, published 2018)

Test system: PSA, KLF9, PMEPA1 expression
Assay: Steroid-induced gene expression (PSA, KLF9, PMEPA1) by qPCR in long-term Enz-treated LAPC4 cells
Format: cell-based, human
Details: LAPC4 treated with Enz 36 days, steroid 24 hours
Method: LAPC4 cells were treated with Enz for 36 days and then seeded into 12 well plates coated with poly-DL-ornithine at 50% confluence. […] Total RNA was extracted with a GenElute Mammalian Total RNA miniprep kit (Sigma-Aldrich) and 1 μg RNA was reverse-transcribed to cDNA with the iScript cDNA Synthesis Kit (Bio-Rad). An ABI 7500 Real-Time PCR machine (Applied Biosystems) was used to perform the qPCR analysis, using iTaq Fast SYBR Green Supermix with ROX (Bio-Rad) in 96-well plates at a final reaction volume of 10 μl. The qPCR analysis was carried out in triplicate with suitable primers. Each mRNA transcript was quantitated by normalizing the sample values to RPLP0 and to vehicle treated cells (for steroid treated cells). All gene expression studies were repeated in independent experiments.

In the case of `C[C@]12CCC(=O)C[C@@H]1CC[C@@H]1[C@@H]2CC[C@]2(C)[C@@H](O)CC[C@@H]12` [DHT, 5α-dihydrotestosterone], the PMEPA1 expression is reported as “induced with DHT only”.
For `C[C@]12CCC(=O)C=C1CC[C@@H]1[C@@H]2[C@@H](O)C[C@@]2(C)[C@H]1CC[C@]2(O)C(=O)CO` [cortisol], the KLF9 expression was “induced” and the PSA expression was “cortisol induction of PSA expression”.
